Measured values taken from patent US20230285493A1, “ANTIMICROBIAL COMPOSITION” (Mootral SA, priority 2014, published 2023).

Assays:
Assay in all cases: modified broth dilution assay, 96-well plates (MIC)
Type in all cases: cell-based
Bacillus subtilis = settings: overnight 37.0° C., absorbance 600 nm
Procedure: (§1) In order to determine the minimal inhibitory concentration (MIC) for the bioflavonoids (BC), allicin (AL) and ajoene (AJ) on selected Gram-positive bacteria, Gram-negative bacteria and yeast, a modified broth dilution assay using 96-well plates, according to Wiegand, Hilpert and Hancock (2008), was performed.
(§2) The microorganisms for the study were obtained from Cardiff University. The cultures used in the study were prepared by aseptic inoculation of microorganisms from pure plate cultures into 50 ml of sterile nutrient broth. The cultures were incubated overnight at 37.0° C. without agitation. Prior to use the cultures were washed by centrifugation in a desk top centrifuge at 3000 RPM for 15 minutes and the pellet resuspended in sterile saline (0.85% NaCl).
(§3) In order to determine the activity of the compounds both individually as well as in combination, a range of concentrations of each compound was used in a doubling dilution. The highest concentration used was dependent on the organism in question (whether Gram-positive bacteria, Gram-negative bacteria or yeast). From the highest concentration used in the test the samples were diluted five times in order to give six different concentrations per compound.
(§4) The allicin samples were aqueous solutions and were therefore diluted directly using H2O. However, the ajoene was in oil form and the bioflavonoids were in powder form, neither of which were water soluble. Before dilution the ajoene and bioflavonoids were solubilised by creation of a stock solution using 80% DMSO.
(§5) The wells on the 96-well plates were prepared in triplicate as follows: the AL, AJ and BC were pre-diluted in Eppendorf tubes at 10× the required final concentration. 20 μl of each dilution was added per well to give a 1:10 dilution in the final 200 μl per well. A matrix of concentrations of mixtures of allicin:bioflavonoid, ajoene:bioflavonoid and allicin:ajoene:bioflavonoid was used, with the dilution gradients of allicin and ajoene running inversely to bioflavonoids.
(§6) 130 μl of sterile nutrient broth (Nutrient Broth No. 3 (Sigma 70149)) was added to each well.
(§7) 50 μl of each microorganism suspended in saline was added to each well (except for the negative control). Each species of microorganism was added to two plates, the first for the individual (control) assays and the second for the matrix study. The plates were incubated at 37.0° C. overnight without agitation.
(§8) The plates were scanned individually using a Tecan plate reader at 600 nm and the absorbance recorded in a comma-delimited file for analysis.
(§9) The absorbance for each sample was compared to the growth (absorbance) of the control cultures (without treatment) in order to determine the MIC (all values blanked against negative control to negate absorbance of plate and broth). The mean and standard deviation of the triplicate experiments were determined and the means plotted on scatter diagrams for comparison.

Candida tropicalis = settings: overnight 37.0° C., absorbance 600 nm
Procedure: as §1, §2, §3, §4, §5, §6, §7, §8, §9

Escherichia coli = settings: overnight 37.0° C., absorbance 600 nm
Procedure: as §1, §2, §3, §4, §5, §6, §7, §8, §9

Klebsiella pneumonia = settings: Klebsiella pneumoniae, overnight 37.0° C., absorbance 600 nm
Procedure: as §1, §2, §3, §4, §5, §6, §7, §8, §9

Pseudomonas aeruginosa = settings: overnight 37.0° C., absorbance 600 nm
Procedure: as §1, §2, §3, §4, §5, §6, §7, §8, §9

Staphylococcus aureus = settings: overnight 37.0° C., absorbance 600 nm
Procedure: as §1, §2, §3, §4, §5, §6, §7, §8, §9

MIC (Bacillus subtilis) [µg/mL]	MIC (Candida tropicalis) [µg/mL]	MIC (Escherichia coli) [µg/mL]	MIC (Klebsiella pneumonia) [µg/mL]	MIC (Pseudomonas aeruginosa) [µg/mL]	MIC (Staphylococcus aureus) [µg/mL]	Compound
24	24	24	12	12	48	C=CCSSC=CC[S+]([O-])CC=C (mixture of isomers) [Ajoene, (E,Z)-4,5,9-trithiadodeca-1,6,11-triene 9-oxide]
9.2	9.2	18.4	46	9.2	27.6	C=CCS[S+]([O-])CC=C (stereo not drawn) [Allicin, 2-Propene-1-sulfinothioic acid S-2-propenyl]
